Measurements reported in US12129244B2, “Modulators of Mas-related G-protein receptor X2 and related products and methods” (Escient Pharmaceuticals, Inc., priority 2022, dated 2024).

Each compound was assayed against T1, human MRGPRX2 (Homo sapiens, UniProt Q96LB1) (assay: MRGPRX2 activity: IP-One HTRF antagonist assay in CHO cells versus Cortistatin-14). Settings: CHO cells stably expressing human MRGPRX2; versus 0.3 uM Cortistatin-14 agonist; IP-1 HTRF.
T1 construct: expressed in transfected cells
T1 sequence (Q96LB1 1-330): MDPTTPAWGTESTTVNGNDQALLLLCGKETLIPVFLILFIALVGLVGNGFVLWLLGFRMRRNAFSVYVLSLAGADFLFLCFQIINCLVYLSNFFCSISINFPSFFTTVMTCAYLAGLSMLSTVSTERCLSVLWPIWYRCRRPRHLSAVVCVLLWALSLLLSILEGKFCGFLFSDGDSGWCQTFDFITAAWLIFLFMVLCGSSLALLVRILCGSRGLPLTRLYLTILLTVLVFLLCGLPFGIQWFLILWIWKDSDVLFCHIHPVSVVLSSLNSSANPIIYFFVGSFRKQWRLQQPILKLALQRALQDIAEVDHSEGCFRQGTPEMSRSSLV
Type: cell-based
Protocol: CHO cells stably transfected to express human MRGPRX2 were maintained in an incubator at 37° C. with 5% CO2 and grown in F12 (HAM) media with 10% fetal bovine serum (FBS), 1% Glutamax, 1% penicillin/streptomycin, 800 μg/mL Geneticin (G418), and 300 μg/mL Hygromycin B.
Cells were plated in a 384-well assay plate at 20,000 cells per well in 12 μL of Opti-MEM and kept in an incubator overnight. On the day of the assay, compounds solubilized at 10 mM in DMSO were added as a 10-point curve (30 uM final top concentration with 1:3 serial dilutions) using a Tecan D300E digital dispenser. Agonists were diluted in assay buffer (final concentrations of 5.7 mM Tris-HCl, 43 mM NaCl, 50 mM LiCl, pH=8) and 2 μL of the agonist Cortistatin-14 (CPC Scientific, catalog CORT-002) are added to each well. Final concentrations of agonists were 0.3 μM Cortistatin. Final concentrations of DMSO were kept consistent across the plate. Plates were incubated in the dark for 1 h at 37° C. and then for 1 h at room temperature. IP-1 standards and HTRF detection reagents were added according to the IP-One-Gq Kit purchased from Cisbio (part number 62IPAPEJ) and incubated in the dark for 1 h at room temperature. The plate was read on a Molecular Devices SpectraMax iD5 plate reader. The HTRF ratio was calculated from the raw data and graphed using GraphPad Prism to calculate an IC50 value for each compound.
The activity ranges are denoted as follows: “+++++” denotes antagonist activity <100 nM; “++++” denotes antagonist activity between 100 and 500 nM; “+++” denotes activity between 501 and 1000 nM; “[…]” denotes activity between 1001 and 2500 nM; and “+” denotes activity >2500 nM
Work on `O=C(N[C@@H]1CCC[C@H](Nc2cc(C(F)(F)F)nc3ccccc23)C1)C1COCCN1Cc1ccccc1` (mixture of isomers) [Example 4-31] yielded an IC50 of over 2500 nM.
`CC1C(C(=O)N[C@@H]2CCC[C@H](Nc3cc(C(F)(F)F)nc4ccccc34)C2)CC2CC1C2(C)C` (mixture of isomers) [Example 4-64] was tested, and the IC50 was over 2500 nM.
For `O=C(CCc1cc(Br)ccc1F)N[C@@H]1CCC[C@H](Nc2cc(C(F)(F)F)nc3ccccc23)C1` (racemic) [Example 4-74], the IC50 was over 2500 nM.
`O=C(CCc1ccc(Cl)c(F)c1)N[C@@H]1CCC[C@H](Nc2cc(C(F)(F)F)nc3ccccc23)C1` (racemic) [Example 4-82] gave an IC50 of over 2500 nM.
For `O=C(N[C@@H]1CCC[C@H](Nc2cc(C(F)(F)F)nc3ccccc23)C1)c1coc2ccccc2c1=O` (racemic) [Example 4-111], the IC50 was over 2500 nM.
`O=C(N[C@@H]1CCC[C@H](Nc2cc(C(F)(F)F)nc3ccccc23)C1)c1ccccc1Oc1ccccc1` (racemic) [Example 4-113] showed an IC50 of over 2500 nM.
In the case of `COC(=O)c1cccc(C(=O)N[C@@H]2CCC[C@H](Nc3cc(C(F)(F)F)nc4ccccc34)C2)c1` [Example 3-5], the IC50 is reported as 100 to 500 nM.
With `O=C(N[C@@H]1CCC[C@H](Nc2cc(C(F)(F)F)nc3ccc(Cl)cc23)C1)c1ccc(C(=O)N2CCOCC2)cc1` [Example 3-20] the IC50 was under 100 nM.
Compound `CCc1ccc(C(=O)N[C@@H]2CCC[C@H](Nc3cc(C(F)(F)F)nc4ccccc34)C2)cc1` [Example 4-18] has an IC50 of 100 to 500 nM.
For `CNc1ccc(C(=O)N[C@@H]2CCC[C@H](Nc3cc(C(F)(F)F)nc4ccc(C)cc34)C2)cc1` [Example 4-130], the IC50 was under 100 nM.
Compound `Cc1ccc2nc(C(F)(F)F)cc(N[C@H]3CCC[C@@H](NC(=O)c4cccc(N(C)C)c4)C3)c2c1` [Example 4-159] has an IC50 of 100 to 500 nM.
With `CNc1ccccc1C(=O)N[C@@H]1CCC[C@H](Nc2cc(C(F)(F)F)nc3ccc(C)cc23)C1` [Example 4-165] the IC50 was 501 to 1000 nM.
Work on `C=CC12CCC(C(=O)N[C@@H]3CCC[C@H](Nc4cc(C(F)(F)F)nc5ccccc45)C3)(CC1)CO2` [Example 4-171] yielded an IC50 of 501 to 1000 nM.
Compound `O=C(N[C@@H]1CCC[C@H](Nc2cc(C(F)(F)F)nc3ccccc23)C1)c1ccc2[nH]c(-c3ccncc3)nc2c1` [Example 4-181] has an IC50 of 100 to 500 nM.
`CN(C)c1cccc(C(=O)N[C@@H]2CCC[C@H](Nc3cc(C(F)(F)F)nc4ccc(Cl)cc34)C2)c1` [Example 4-216] was tested, and the IC50 was 100 to 500 nM.
`O=C(N[C@@H]1CCC[C@H](Nc2cc(C(F)(F)F)nc3ccc(Cl)cc23)C1)c1cccc2[nH]ccc12` [Example 4-223] was tested, and the IC50 was under 100 nM.
With `CC(C)S(=O)(=O)Nc1cccc(C(=O)N[C@@H]2CCC[C@H](Nc3cc(C(F)(F)F)nc4ccc(Cl)cc34)C2)c1` [Example 4-228] the IC50 was under 100 nM.
`CS(=O)(=O)Nc1ccc(C(=O)N[C@@H]2CCC[C@H](Nc3cc(C(F)(F)F)nc4ccc(Cl)cc34)C2)cc1` [Example 4-240] gave an IC50 of under 100 nM.
`O=C(N[C@@H]1CCC[C@H](Nc2cc(C(F)(F)F)nc3ccc(Cl)cc23)C1)c1ccc2nncn2c1` [Example 4-245] gave an IC50 of under 100 nM.
`O=C(N[C@@H]1CCC[C@H](Nc2cc(C(F)(F)F)nc3ccc(Cl)cc23)C1)c1cccc(Cl)c1` [Example 4-249] showed an IC50 of 100 to 500 nM.
`CS(=O)(=O)Nc1cc(C(=O)N[C@@H]2CCC[C@H](Nc3cc(C(F)(F)F)nc4ccc(Cl)cc34)C2)ccc1F` [Example 4-258] gave an IC50 of under 100 nM.
With `O=C(N[C@@H]1CCC[C@H](Nc2cc(C(F)(F)F)nc3ccc(Cl)cc23)C1)c1ccnc2cn[nH]c12` [Example 4-263] the IC50 was under 100 nM.
`Cc1cn2cc(C(=O)N[C@@H]3CCC[C@H](Nc4cc(C(F)(F)F)nc5ccc(Cl)cc45)C3)ccc2n1` [Example 4-265] showed an IC50 of under 100 nM.
`O=C(N[C@@H]1CCC[C@H](Nc2cc(C(F)(F)F)nc3ccc(Cl)cc23)C1)c1cc(O)cc(O)c1` [Example 4-271] was tested, and the IC50 was under 100 nM.
Compound `CC(C#N)c1cccc(C(=O)N[C@@H]2CCC[C@H](Nc3cc(C(F)(F)F)nc4ccc(F)cc34)C2)c1` (stereo partly shown) [Example 4-282] has an IC50 of under 100 nM.
`O=C(N[C@@H]1CCC[C@H](Nc2cc(C(F)(F)F)nc3ccc(F)cc23)C1)c1cccc(O)c1` [Example 4-284] showed an IC50 of under 100 nM.
`CC(C)S(=O)(=O)Nc1cccc(C(=O)N[C@@H]2CCC[C@H](Nc3cc(C(F)(F)F)nc4ccc(F)cc34)C2)c1` [Example 4-297] gave an IC50 of under 100 nM.
Work on `CS(=O)(=O)Nc1cccc(C(=O)N[C@@H]2CCC[C@H](Nc3cc(C(F)(F)F)nc4ccc(F)cc34)C2)c1` [Example 4-302] yielded an IC50 of under 100 nM.
`CS(=O)(=O)Nc1ccc(C(=O)N[C@@H]2CCC[C@H](Nc3cc(C(F)(F)F)nc4ccc(F)cc34)C2)cc1` [Example 4-317] gave an IC50 of under 100 nM.
For `CCCn1nccc1C(=O)N[C@@H]1CCC[C@H](Nc2cc(C(F)(F)F)nc3ccc(F)cc23)C1` [Example 4-325], the IC50 was 100 to 500 nM.
`O=C(N[C@@H]1CCC[C@H](Nc2cc(C(F)(F)F)nc3ccc(Cl)cc23)C1)c1c[nH]cc1C(F)(F)F` [Example 4-394] gave an IC50 of under 100 nM.
`O=C(N[C@@H]1CCC[C@H](Nc2cc(C(F)(F)F)nc3ccc(Cl)cc23)C1)c1cnn(CCCl)c1` [Example 4-396] showed an IC50 of under 100 nM.
`O=C(N[C@@H]1CCC[C@H](Nc2cc(C(F)(F)F)nc3ccc(Cl)cc23)C1)c1ccn2cnnc2c1` [Example 4-397] showed an IC50 of under 100 nM.
Compound `O=C(N[C@@H]1CCC[C@H](Nc2cc(C(F)(F)F)nc3ccc(Cl)cc23)C1)c1cncc2cn[nH]c12` [Example 4-398] has an IC50 of under 100 nM.
`Cc1nn(C)cc1C(=O)N[C@@H]1CCC[C@H](Nc2cc(C(F)(F)F)nc3ccc(Cl)cc23)C1` [Example 4-401] gave an IC50 of under 100 nM.
`Cn1cc(C(=O)N[C@@H]2CCC[C@H](Nc3cc(C(F)(F)F)nc4ccc(Cl)cc34)C2)c(C(F)F)n1` [Example 4-404] was tested, and the IC50 was under 100 nM.
`O=C(N[C@@H]1CCC[C@H](Nc2cc(C(F)(F)F)nc3ccc(Cl)cc23)C1)c1cn[nH]c1C1CC1` [Example 4-405] gave an IC50 of under 100 nM.
In the case of `O=C(N[C@@H]1CCC[C@H](Nc2cc(C(F)(F)F)nc3ccc(Cl)cc23)C1)c1cn(C(F)F)nc1Cl` [Example 4-406], the IC50 is reported as under 100 nM.
Compound `O=C(N[C@@H]1CCC[C@H](Nc2cc(C(F)(F)F)nc3ccc(Cl)cc23)C1)c1cnn(C2COC2)c1` [Example 4-407] has an IC50 of under 100 nM.
In the case of `N#Cc1cc(C(=O)N[C@@H]2CCC[C@H](Nc3cc(C(F)(F)F)nc4ccc(Cl)cc34)C2)c[nH]1` [Example 4-408], the IC50 is reported as under 100 nM.
In the case of `CN(C)Cc1ccc(C(=O)N[C@@H]2CCC[C@H](Nc3cc(C(F)(F)F)nc4ccc(Cl)cc34)C2)cc1` [Example 4-410], the IC50 is reported as under 100 nM.
`Cn1c(C(=O)N[C@@H]2CCC[C@H](Nc3cc(C(F)(F)F)nc4ccc(Cl)cc34)C2)cnc1Cl` [Example 4-412] showed an IC50 of under 100 nM.
With `CNc1cc(C(=O)N[C@@H]2CCC[C@H](Nc3cc(C(F)(F)F)nc4ccc(Cl)cc34)C2)ccc1OC` [Example 4-413] the IC50 was under 100 nM.
`O=C(N[C@@H]1CCC[C@H](Nc2cc(C(F)(F)F)nc3ccc(Cl)cc23)C1)c1ccc(N2CC2)cc1` [Example 4-415] gave an IC50 of under 100 nM.
`Cn1ccc(C(=O)N[C@@H]2CCC[C@H](Nc3cc(C(F)(F)F)nc4ccc(Cl)cc34)C2)c1` [Example 4-416] gave an IC50 of under 100 nM.
Work on `Cc1cn(C)cc1C(=O)N[C@@H]1CCC[C@H](Nc2cc(C(F)(F)F)nc3ccc(Cl)cc23)C1` [Example 4-417] yielded an IC50 of under 100 nM.
With `Nc1cnc(Cl)c(C(=O)N[C@@H]2CCC[C@H](Nc3cc(C(F)(F)F)nc4ccc(Cl)cc34)C2)c1` [Example 4-418] the IC50 was under 100 nM.
In the case of `Cc1cc(C(=O)N[C@@H]2CCC[C@H](Nc3cc(C(F)(F)F)nc4ccc(Cl)cc34)C2)co1` [Example 4-419], the IC50 is reported as under 100 nM.
In the case of `O=C(N[C@@H]1CCC[C@H](Nc2cc(C(F)(F)F)nc3ccc(Cl)cc23)C1)c1ncco1` [Example 4-424], the IC50 is reported as under 100 nM.
In the case of `O=C(N[C@@H]1CCC[C@H](Nc2cc(C(F)(F)F)nc3ccc(Cl)cc23)C1)c1ccon1` [Example 4-425], the IC50 is reported as under 100 nM.
Compound `Cc1cc(C(=O)N[C@@H]2CCC[C@H](Nc3cc(C(F)(F)F)nc4ccc(Cl)cc34)C2)c(C)[nH]1` [Example 4-426] has an IC50 of under 100 nM.
For `CCc1[nH]ccc1C(=O)N[C@@H]1CCC[C@H](Nc2cc(C(F)(F)F)nc3ccc(Cl)cc23)C1` [Example 4-427], the IC50 was under 100 nM.
`CCn1ncc(C(=O)N[C@@H]2CCC[C@H](Nc3cc(C(F)(F)F)nc4ccc(Cl)cc34)C2)c1C` [Example 4-452] was tested, and the IC50 was under 100 nM.
`Cc1nn(CC(F)(F)F)cc1C(=O)N[C@@H]1CCC[C@H](Nc2cc(C(F)(F)F)nc3ccc(Cl)cc23)C1` [Example 4-464] gave an IC50 of under 100 nM.
Compound `O=C(N[C@@H]1CCC[C@H](Nc2cc(C(F)(F)F)nc3ccc(Cl)cc23)C1)c1cnn(C2CCCCC2)c1` [Example 4-487] has an IC50 of under 100 nM.
